From patent publication US9499823B2, “Constructs expressing chimeric receptors and use thereof for the controlled activation of defence response to pathogens in plants” (priority 2009, dated 2016)
Where no end group is shown, it is not given here.

Legend:
[1] = tested on: RetOx, CYP81F2 and PAD3 transcripts; assay: Elicitor-induced accumulation of Ret-Ox, CYP81F2 and PAD3 transcripts, semi-quantitative PCR; assay type: cell-based, Arabidopsis thaliana; details: flg22 1 μM, 30 minutes
Method: B) Elicitor induced accumulation of Ret-Ox, CYP81F2 and PAD3 transcripts analysed by semi-quantitative PCR, using the UBQ5 gene for normalization. Leaves were incubated with water, flg22 (1 μM), elfl8 (10 μM) or a generic peptide (10 μM) for 30 minutes. The experiment was repeated three times with similar results. The same experiment was performed in a second independent transgenic line expressing eJMC with similar results.
3,3′-diaminobenzidine (DAB) staining, callose deposition and gene resistance analysis were assayed as described (Galletti et al., 2008). For measuring active oxygen species released by tobacco agroinfiltrated plants after elicitor treatment, the authors used a modified luminol-dependent assay (Gomez et al., 1999). Slices, corresponding to approximately 30 mg fresh weight, were transferred to assay tubes containing 1 μM flg22 or 10 μM elfl8 in aqueous solution supplied with 40 μM luminol (SIGMA). Chemo-luminescence was measured in a liquid scintillation counter (LS-6500, Beckman) after 5 and 15 min upon addition of elicitors.
Fluorescent eJMC and FLS2 were also stably expressed in transgenic Arabidopsis ecotype Wassilewskija (Ws-0), which carries EFR but lacks a flg22 perception system (Gomez-Gomez et al., 1999, Bauer et al., 2001). Transformed T1 plants expressing the proteins, named eJMC plants and FLS2 plants, respectively, were selected by confocal microscopy analysis of adult rosette leaves. […] Fluorescence was detected only in adult rosette leaves, likely due to a low expression level of the receptor at the different developmental stages.

[2] = tested on: agroinfiltrated Arabidopsis thaliana Col-0 leaves; assay: Receptor internalization: decrease of GFP fluorescence by confocal microscopy in agroinfiltrated Arabidopsis Col-0 leaves; assay type: cell-based; details: 10 μM flg22, 30 min
Method: PCR templates are shown in bold. Primers listed in Table 1 are shown in capital letters. Stable transgenic lines were generated using the standard A. tumefaciens-mediated gene transfer procedure of inflorescence infiltration (Bent et al., 2006). Independent transformed plant pools were kept separate for the selection of independent transgenic lines based on their phosphinotrycin resistance and leaves GFP fluorescence. Tobacco and Arabidopsis transient transgenic lines were prepared by infiltrating with Agrobacterium tumefaciens carrying the individual constructs, as described by Reca (2008).
The GFP-dependent fluorescence was monitored from 2 to 4 days post infection in cells of the lower epidermis. Pieces of leaf were randomly cut from the infected area and mounted in water or supplemented with elicitors for microscopic observations. Flg22 and elfl8 were used at 10 μM while oligosaccharides were used at 100 μg/mL. Materials were analyzed using a Leica DM IRE epifluorescence microscope equipped with a digital cooled camera (DFC350FX R2; Leica). GFP fluorescence was excited with a 488-nm laser line, and emitted fluorescence was collected at 543-nm. The Leica Confocal Software and Adobe Photoshop 5.0 were used for post-acquisition image processing. All samples were imaged with the 40× or 100× oil objectives. Pictures were taken in Kahlman frame giving an average of 16 scans for the dynamics of internalization and 4 scans for the cellular localizations. […]
The dynamics of fluorescence localization upon treatment with elicitors was then studied. Whereas endocytosis of surface receptors upon ligand binding often occurs in animals (Warren and Landgraf 2006), this mechanism in plants has emerged only recently (Geldner & Robatzek 2008) and, so far, FLS2 is the only receptor involved in plant immunity shown to undergo endocytosis upon the specific stimulation with flg22 (Robatzek et al., 2006). The authors tested the effect of flg22 and elf 18, i.e. the peptides specifically recognized by FLS2 and EFR respectively, and oligogalacturonides with a degree of polymerization between 10 and 16 (OGs), which act as general elicitors of defense responses in several plants. Explants from agroinfiltrated Arabidopsis leaves at 2 dpi were treated with elicitors and then subjected to confocal microscopy analysis. […] Instead, when eJMC-expressing explants were stimulated with flg22, the fluorescent signal decreased by 25% and 40% after 20 min and 30 min, respectively (FIG. 3B).
The first chimeric receptor, indicated as WEG, comprised the WAK1 ectodomain fused to the TM-iJM-kinase portion of EFR and was designed to test the ability of the WAK1 ectodomain to perceive OGs and transmit the signal inside the cell. […] Both WEG and EWAK as well as WAK1 were fused to GFP and used in agroinfiltration experiments (FIG. 5A). […] Western-blot analysis using GFP-specific antibodies on proteins from IWF and microsomal fractions prepared from infiltrated leaves confirmed the plasma membrane localization of both fluorescent chimeras (FIG. 5D). The effect of OGs on the internalization of WEG was followed in agroinfiltrated Arabidopsis Col-0 leaves. […] This might be due to the inability of WEG to uncouple its ectodomain from pectins, since it is known that WAK1 strongly binds to pectin and only denaturing treatments allow its separation from cell wall (He et al., 1996). On the other hand, affinity studies have shown that WAK1 interact with cell wall pectins that are in a Ca^2+-induced conformation (i.e. the structures called “egg boxes”) and that the interaction is disrupted by adding a chelating agent such as EDTA (Decreux et al., 2005; Cabrera et al., 2008). The authors therefore tested whether OG-induced internalization of WEG occurred in the presence of 5 mM EDTA. WEG-expressing agroinfiltrated leaves were syringe-infiltrated with OGs and after 30 min the tissues were mounted in the presence of EDTA for confocal microscopy analysis. […]

[3] = tested on: ethylene biosynthesis in tobacco leaves; assay: Induction of ethylene biosynthesis in agroinfiltrated tobacco leaf explants; assay type: cell-based, Nicotiana tabacum; details: flg22, 2 h; compared with EFR-expressing explants as negative controls
Method: F) Induction of ethylene biosynthesis in agroinfiltrated tobacco leaves expressing the fluorescent EFR, FLS2, TMC, eJMC and eJMC^Y859A. NC: negative control, represented by agroinfiltrated leaf tissues expressing fluorescent EFR or FLS2 and elicited with flg22 or elfl8, respectively. Results are averages±standard error (n=3).
Excised infiltrated leaf sectors were stimulated for 2 h with water or the elicitor ([…] and 100 μg/ml for OGs). Values are means±s.e.m. (N=3).
E) Induction of ethylene biosynthesis in agroinfiltrated tobacco leaves expressing EFR, WAK1, WEG and EWAK. Each construct was stimulated for 2 h with elfl8 (10 μM) or OGs (100 μg/mL). NC: negative control, represented by agroinfiltrated leaf tissue expressing EFR or FLS2 when OGs or elfl8, respectively, were used for elicitation. Error bars indicate the standard error of three independent replicates.
(A) Induction of ethylene biosynthesis in agroinfiltrated tobacco explants expressing EFR, WAK1, WEG and EWAK. […] Agroinfiltrated leaf tissues expressing EFR or WEG and elicited with OGs or elfl8 respectively, represented our negative control. Values are means±s.e.m. (N=3). (B) Elicitor-induced gene expression in untransformed Col-0 and Col-0 efr plants, and in transgenic Arabidopsis Col-0 efr plants stably expressing WEG. Accumulation of At3g22270 and At4g37640 transcripts was analysed by semi-quantitative PCR, using the UBQ5 gene for normalization. Adult leaves were syringe-infiltrated with water, OGs (25 μg/ml) or elfl8 (10 μM) for 3 h. The experiment was repeated three times with similar results. The same experiment was performed in a second independent transgenic line expressing WEG with similar results.
Approximately 150 mg of tobacco agroinfiltrated leaf were cut in small slices and extensively washed with sterile distilled water. The explants were placed in sealed 10 mL flasks containing 2 mL of sterile water alone or supplemented with 100 mg L^−1 OGs, or 1 μM flg22 or 10 μM elfl8. 450 μl headspace samples were withdrawn from the vial after 2 h treatment and analyzed by gas chromatography-mass spectrometry using an Agilent 6850A gas chromatograph coupled to a 5973N quadrupole mass selective detector (Agilent Technologies, Palo Alto, Calif., USA). Chromatographic separations were carried out an HP Plot-Q fused-silica capillary column (30 m×0.32 mm i.d.) coated with polystyrene-divinylbenzene (film thickness 0.20 μm) as stationary phase. Injection mode: splitless at a temperature of 220° C. The initial temperature of the oven was held at 50° C. for 8 min then ramped to 220° C. at a rate of 15° C./min and held for 5 min. Helium was used as carrier gas at a constant flow of 1.0 ml/min. Mass spectra were collected both in full scan and in SIM mode monitoring the ions m/z m/z 26, m/z 27 and m/z 28 (ionization energy 70 eV; ion source 280° C.; ion source vacuum 10^−5 Torr).

[4] = tested on: agroinfiltrated leaves of N. tabacum ecotype SR1; assay: Receptor internalization in agroinfiltrated tobacco leaves; assay type: cell-based, Nicotiana tabacum; details: 10 μM flg22, 30 min
Method: E) Relative variation of fluorescence in agroinfiltrated tobacco leaves expressing EFR, FLS2, eJMC and TMC and treated with 10 μM elfl8 or 10 μM flg22 for 30 min.
The GFP-dependent fluorescence was monitored from 2 to 4 days post infection in cells of the lower epidermis. Pieces of leaf were randomly cut from the infected area and mounted in water or supplemented with elicitors for microscopic observations. Flg22 and elfl8 were used at 10 μM while oligosaccharides were used at 100 μg/mL. Materials were analyzed using a Leica DM IRE epifluorescence microscope equipped with a digital cooled camera (DFC350FX R2; Leica). GFP fluorescence was excited with a 488-nm laser line, and emitted fluorescence was collected at 543-nm. The Leica Confocal Software and Adobe Photoshop 5.0 were used for post-acquisition image processing. All samples were imaged with the 40× or 100× oil objectives. Pictures were taken in Kahlman frame giving an average of 16 scans for the dynamics of internalization and 4 scans for the cellular localizations.
The behaviour of TMC and eJMC upon treatment with flg22 and elfl8 was also analysed in agroinfiltrated leaves of N. tabacum ecotype SR1 and compared to that of EFR and FLS2. […] Instead, in the eJMC expressing plants fluorescence decreased within 10-30 min after stimulation with flg22, at an extent similar to that observed in Arabidopsis, i.e. by 25% and 35% after 20 min and 30 min, respectively (FIG. 3E).

QRLSTGSRINSAKDDAAGLQIA [flg22]
expression of RetOx, CYP81F2 and PAD3 in untransformed Ws-0 plants [1]: not in the untransformed plants

TMC: chimera (Ala817FLS2-Leu661EFR): FLS2 LRR, eJM and N-terminal half of TM fused to C-terminal half of EFR TM, iJM and kinase
decrease in fluorescence upon treatment with flg22 [2]: did not show any decrease in fluorescence | ethylene release induced by flg22 [3]: only a weak response | internalization after stimulation with flg22 [4]: Neither FLS2 nor TMC underwent internalization
